In patent US9856279B2 (AGIOS PHARMACEUTICALS, INC, priority 2011, dated 2018) one finds IC50 data, which are given here for 31 compounds.

IDH1 R132H, sequence (O75874 whole entry R132H): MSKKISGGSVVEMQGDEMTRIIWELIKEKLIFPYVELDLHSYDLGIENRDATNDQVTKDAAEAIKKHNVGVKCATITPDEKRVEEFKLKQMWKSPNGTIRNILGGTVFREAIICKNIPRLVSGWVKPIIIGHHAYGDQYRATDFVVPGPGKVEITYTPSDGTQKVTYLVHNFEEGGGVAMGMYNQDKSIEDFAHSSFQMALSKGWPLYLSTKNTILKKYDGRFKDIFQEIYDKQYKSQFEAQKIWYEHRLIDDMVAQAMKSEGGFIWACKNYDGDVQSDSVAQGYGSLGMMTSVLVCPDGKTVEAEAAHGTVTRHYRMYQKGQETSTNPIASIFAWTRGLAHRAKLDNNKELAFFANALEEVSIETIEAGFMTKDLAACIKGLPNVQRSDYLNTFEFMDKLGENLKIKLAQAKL

In the first assay the target is IDH1 R132H (Homo sapiens, UniProt O75874, R132H). Kind of assay: Assay for IDH1 R132H inhibitors (NADPH/aKG, resazurin detection). It is filed as biochemical. To be noted: Table 3; enzyme assay, 50 minutes at room temperature; read-out: IC50 (IDH1 R132H Inhibition). In outline:
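Compound added to substrate mix (8 uM NADPH, 2 mM aKG), then enzyme mix (0.2 μg/ml IDH1 R132H); 50 min RT in 20 mM Tris pH 7.5, 150 mM NaCl, 10 mM MgCl2, 0.03% BSA. Resazurin detection mix (30 μM) 5 min RT; resorufin fluorescence Ex544/Em590.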
As usually defined, the IC50 is the midpoint of a concentration-inhibition curve. Consider `COCCC(=O)N1CCN(c2nc(C(C)C)c(-c3ccc(OC(F)(F)F)cc3)cc2C#N)C[C@H]1C` [Compound 232, (R)-6-isopropyl-2-(4-(3-methoxypropanoyl)-3-methylpiperazin-1-yl)-5-(4-(trifluoromethoxy)phenyl)nicotinonitrile], for which the IC50 fell in the range of 1000 to 5000 nM.
Same read-out and setting: as for `CC(C)c1cc(-c2ccccc2)c(C#N)c(N2CCN(C(=O)c3c[nH]c4ccccc34)CC2c2ccccc2)n1` (stereo not shown) [Compound 169, 2-(4-(1H-indole-3-carbonyl)-2-phenylpiperazin-1-yl)-6-isopropyl-4-phenylnicotinonitrile], the figure is 1000 to 5000 nM; as for `COc1ccccc1-c1cc(C(C)C)nc(N2CCN(C(=O)c3ccco3)CC2)c1C#N` [Compound 104, 2-(4-(furan-2-carbonyl)piperazin-1-yl)-6-isopropyl-4-(2-methoxyphenyl)nicotinonitrile], 5000 to 15000 nM; as for `COc1cccc(-c2cc(C(C)C)nc(N3CCN(C(=O)c4ccoc4)[C@H](C)C3)c2C#N)c1` [Compound 151, (R)-2-(4-(furan-3-carbonyl)-3-methylpiperazin-1-yl)-6-isopropyl-4-(3-methoxyphenyl)nicotinonitrile], 1000 to 5000 nM.
Same read-out and setting: the result for `CC(C)c1cc(-c2ccccc2)c(C#N)c(N2CCN(C(=O)c3ccoc3)[C@@H](C)C2)n1` [Compound 132, (S)-2-(4-(furan-3-carbonyl)-3-methylpiperazin-1-yl)-6-isopropyl-4-phenylnicotinonitrile] reads 1000 to 5000 nM; that for `CC(C)c1cc(-c2ccccc2)c(C#N)c(N2CCN(C(=O)Cc3ccccc3)[C@@H](C)C2)n1` [Compound 133, (S)-6-isopropyl-2-(3-methyl-4-(2-phenylacetyl)piperazin-1-yl)-4-phenylnicotinonitrile], 1000 to 5000 nM; that for `CC(C)c1cc(-c2cccc(F)c2)c(C#N)c(N2CC(C)N(C(=O)c3ccoc3)C(C)C2)n1` (stereo not shown) [Compound 134, 4-(3-fluorophenyl)-2-(4-(furan-3-carbonyl)-3,5-dimethylpiperazin-1-yl)-6-isopropylnicotinonitrile], 1000 to 5000 nM.
Still for that read-out and setting: as for `CC(C)c1nc(N2CCN(C(=O)Cc3ccccc3)[C@H](C)C2)c(C#N)cc1-c1ccccc1` [Compound 143, (R)-6-isopropyl-2-(3-methyl-4-(2-phenylacetyl)piperazin-1-yl)-5-phenylnicotinonitrile], the figure is 1000 to 5000 nM; as for `CC(C)c1cc(-c2cccc(F)c2)c(C#N)c(N2CCN(C(=O)c3c[nH]c4ccccc34)C(C)C2)n1` (stereo not shown) [Compound 129, 2-(4-(1H-indole-3-carbonyl)-3-methylpiperazin-1-yl)-4-(3-fluorophenyl)-6-isopropylnicotinonitrile], 5000 to 15000 nM.
In the case of `COCCC(=O)N1CCN(c2nc(C(C)C)c(-c3ccc(C(F)(F)F)cc3)cc2C#N)C[C@H]1C(C)C` [Compound 197, (R)-6-isopropyl-2-(3-isopropyl-4-(3-methoxypropanoyl)piperazin-1-yl)-5-(4-(trifluoromethyl)phenyl)nicotinonitrile], the IC50 lay in the range of 1000 to 5000 nM.
`COc1ccccc1-c1cc(C#N)c(N2CCN(C(=O)Cc3cccs3)[C@H](C)C2)nc1C(C)C` [Compound 177, (R)-6-isopropyl-5-(2-methoxyphenyl)-2-(3-methyl-4-(2-(thiophen-2-yl)acetyl)piperazin-1-yl)nicotinonitril-e]: the concentration for half-maximal inhibition (IC50) was in the range of 1000 to 5000 nM.
On the same count and under the same terms, as for `CC(C)c1nc(N2CCN(C(=O)c3ccoc3)[C@@H](C)C2)c(C#N)cc1-c1ccccc1` [Compound 144, (S)-2-(4-(furan-3-carbonyl)-3-methylpiperazin-1-yl)-6-isopropyl-5-phenylnicotinonitrile], the figure is 1000 to 5000 nM; as for `CC(C)c1cc(-c2ccccc2)c(C#N)c(N2CCN(C(=O)Cc3ccccc3)C(C)C2)n1` (stereo not shown) [Compound 121, 6-isopropyl-2-(3-methyl-4-(2-phenylacetyl)piperazin-1-yl)-4-phenylnicotinonitrile], 5000 to 15000 nM.
Same read-out and setting: as for `COCCC(=O)N1CCN(c2nc(C(C)C)c(-c3cccc4ccccc34)cc2C#N)C[C@H]1C` [Compound 217, (R)-6-isopropyl-2-(4-(3-methoxypropanoyl)-3-methylpiperazin-1-yl)-5-(naphthalen-1-yl)nicotinonitrile], the figure is 1000 to 5000 nM; as for `COCCC(=O)N1CCN(c2nc(C(C)C)c(-c3ccc(OC)cc3)cc2C#N)C[C@H]1C` [Compound 214, (R)-6-isopropyl-5-(4-methoxyphenyl)-2-(4-(3-methoxypropanoyl)-3-methylpiperazin-1-yl)nicotinonitrile], 1000 to 5000 nM.
Same read-out and setting: as for `COCCC(=O)N1CCN(c2nc(C(C)C)c(-c3ccc(C(F)(F)F)cc3)cc2C#N)C[C@H]1C` [Compound 189, (R)-6-isopropyl-2-(4-(3-methoxypropanoyl)-3-methylpiperazin-1-yl)-5-(4-(trifluoromethyl)phenyl)-nicotinonitrile], the figure is 1000 to 5000 nM; as for `COCCC(=O)N1CCN(c2nc(C3CC3)c(Cc3ccccc3)c(C)c2C#N)C[C@H]1C` [Compound 245, (R)-5-benzyl-6-cyclopropyl-2-(4-(3-methoxypropanoyl)-3-methylpiperazin-1-yl)-4-methylnicotinonitrile], 1000 to 5000 nM.

The assay is the same for the next values; noted with them: enzyme assay of Example 12; read-out: IDH1R132H IC50.
As for `COCCC(=O)N1CCN(c2nc(C3CC3)c(-c3ccc4nnnn4c3)cc2C#N)C[C@H]1C` [Compound 370, (R)-6-cyclopropyl-2-[4-(3-methoxy-propionyl)-3-methyl-piperazin-1-yl]-5-tetrazolo[1,5-a]pyridin-6-yl-nicotinonitrile], the concentration for half-maximal inhibition (IC50) lay in the range of 500 to 1000 nM.
The same measure, in the same setting: as for `C[C@@H]1CN(c2nc(C3CC3)c(-c3ccc4ncoc4c3)cc2C#N)CCN1C(=O)C1CC1` [Compound 467, (R)-5-(benzo[d]oxazol-6-yl)-2-(4-(cyclopropanecarbonyl)-3-methylpiperazin-1-yl)-6-cyclopropylnicotinonitrile], the figure is 500 to 1000 nM; as for `COCCC(=O)N1CCN(c2nc(C3CC3)c(-c3ccnn3C)cc2C#N)C[C@H]1C` [Compound 371, (R)-6-cyclopropyl-2-[4-(3-methoxy-propionyl)-3-methyl-piperazin-1-yl]-5-(2-methyl-2H-pyrazol-3-yl)-nicotinonitrile], 500 to 1000 nM.
Take `C=Cc1cc(-c2cc(C#N)c(N3CCN(C(=O)CC4CCC(=O)O4)[C@H](C4CC4)C3)nc2C2CC2)ccn1` (stereo partly drawn) [Compound 802, 2-cyclopropyl-6-((3R)-3-cyclopropyl-4-(2-(5-oxotetrahydrofuran-2-yl)acetyl)piperazin-1-yl)-2′-vinyl-[3,4′-bipyridine]-5-carbonitrile]: the concentration for half-maximal inhibition (IC50) is less than 500 nM.
On the same count and under the same terms, as for `COCCC(=O)N1CCN(c2nc(C3CC3)c(-c3cccc(N(C)C)c3)c(C)c2C#N)C[C@H]1C` [Compound 362, (R)-6-cyclopropyl-5-(3-dimethylamino-phenyl)-2-[4-(3-methoxy-propionyl)-3-methyl-piperazin-1-yl]-4-methyl-nicotinonitrile], the figure is less than 500 nM; as for `N#Cc1cc(-c2cccc3nccnc23)c(C2CC2)nc1N1CCN(C(=O)CC(F)(F)F)[C@H](C2CC2)C1` [Compound 532, (R)-6-cyclopropyl-2-(3-cyclopropyl-4-(3,3,3-trifluoropropanoyl)piperazin-1-yl)-5-(quinoxalin-5-yl)nicotinonitrile], less than 500 nM; as for `CS(=O)(=O)n1cc(-c2cc(C#N)c(N3CCN(C(=O)C4CC4)[C@H](C4CC4)C3)nc2C2CC2)cn1` [Compound 502, (R)-2-(4-(cyclopropanecarbonyl)-3-cyclopropylpiperazin-1-yl)-6-cyclopropyl-5-(1-(methylsulfonyl)-1H-pyrazol-4-yl)nicotinonitrile], 500 to 1000 nM.
Same read-out and setting: as for `N#Cc1cc(-c2cnn(C3CCC(O)C3)c2)c(C2CC2)nc1N1CCN(C(=O)C2CC2)[C@H](C2CC2)C1` (stereo partly drawn) [Compound 493, 2-((R)-4-(cyclopropanecarbonyl)-3-cyclopropylpiperazin-1-yl)-6-cyclopropyl-5-(1-(3-hydroxycyclopentyl)-1H-pyrazol-4-yl)nicotinonitrile], the figure is 500 to 1000 nM; as for `C=Cc1cc(-c2c(C3CC3)nc(N3CCN(C(=O)CCC4CC4)[C@H](C4CC4)C3)c(C#N)c2C)ccn1` [Compound 825, (R)-2-cyclopropyl-6-(3-cyclopropyl-4-(3-cyclopropylpropanoyl)piperazin-1-yl)-4-methyl-2′-vinyl-3,4′-bipyridine-5-carbonitrile], less than 500 nM; as for `COCCC(=O)N1CCN(c2nc(C3CC3)c(-c3cccnc3OC)cc2C#N)C[C@H]1C` [Compound 328, (R)-2-cyclopropyl-2′-methoxy-6-[4-(3-methoxy-propionyl)-3-methyl-piperazin-1-yl]-[3,3]bipyridinyl-5-carbonitrile], less than 500 nM.
Same read-out and setting: the result for `C=Cc1cc(-c2c(C3CC3)nc(N3CCN(C(=O)/C=C/CCO)[C@H](C(C)C)C3)c(C#N)c2C)ccn1` [Compound 795, (R,E)-2-cyclopropyl-6-(4-(5-hydroxypent-2-enoyl)-3-isopropylpiperazin-1-yl)-4-methyl-2′-vinyl-3,4′-bipyridine-5-carbonitrile] reads less than 500 nM; that for `N#Cc1cc(-c2cnn(CCO)c2)c(C2CC2)nc1N1CCN(C(=O)C2CC2)[C@H](C2CC2)C1` [Compound 490, (R)-2-(4-(cyclopropanecarbonyl)-3-cyclopropylpiperazin-1-yl)-6-cyclopropyl-5-(1-(2-hydroxyethyl)-1H-pyrazol-4-yl)nicotinonitrile], 500 to 1000 nM; that for `COCCC(=O)N1CCN(c2nc(C3CC3)c(-c3cccc(C(=O)N4CCCC4)c3)c(C)c2C#N)C[C@H]1C` [Compound 332, (R)-6-cyclopropyl-2-[4-(3-methoxy-propionyl)-3-methyl-piperazin-1-yl]-4-methyl-5-[3-(pyrrolidine-1-carbonyl)-phenyl]-nicotinonitrile], 500 to 1000 nM.
For the compound `COCCC(=O)N1CCN(c2nc(C3CC3)c(-c3cnc(OC)c4ccccc34)cc2C#N)C[C@H]1C` [Compound 474, (R)-6-cyclopropyl-5-(1-methoxy-isoquinolin-4-yl)-2-[4-(3-methoxy-propionyl)-3-methyl-piperazin-1-yl]-nicotinonitrile], the IC50 is less than 500 nM.
